In PMC8047011, “Enantiomers of 2-methylglutamate and 2-methylglutamine selectively impact mouse brain metabolism and behavior” (Scientific Reports, 2021):

What was measured:
[1] = Pharmacokinetics in mouse serum and brain; type: in vivo; conditions: 100 mg/kg IP
Experimental: Pharmacokinetics on 2MeGlu and 2MeGln in mice
C57BL/6 mice (Jackson Laboratory cat. no. 000664) were administered 100 mg/kg IP. At the times indicated, mice were deeply anesthetized by isoflurane, blood was collected by cardiac puncture and left to clot on ice, and then animals were perfused with cold PBS until viscera […]
dissected and one half frozen at –80 °C until homogenization in ice cold PBS (pH 7.4) using a probe ultrasonic homogenizer (Branson Sonifier 450, Power: 5, Cycle: 30%, time: 10 s) on ice.
The lysate was centrifuged (2,500g for 15 min at 4 °C) and the supernatant was assayed using Pierce BCA Protein Assay Kit (23225) using BioTek Epoch plate spectrophotometer by recording absorbance at 562 nm.
Two or three 10 μL aliquots of the homogenate were transferred to a 96 well plate and extracted with 190 μL of 60% acetonitrile in water containing 10 μM GABA-d6 or 10 μM Glu-d5 and Gln-d5 as internal standards. 40 μL aliquots of the extracts were then diluted with 120 μL of acetonitrile and prepared for LC-MS/MS analysis. Brain and serum half-lives were calculated using the ‘PKNCA’ package for R. Endogenous levels of Glu, Gln and GABA were determined in the brains of mice used in the pharmacokinetics experiment. MRM transitions specific for Glu, Gln and GABA were monitored simultaneously. […]

C57Bl/6 mice [2] = experiment: Activity chamber open field; type: in vivo, mouse; conditions: for Distance moved in the activity chamber vs vehicle: n = 6; for Distance moved in the activity chamber: chronic 10 mg/kg/day IP, after one week
From the text: See Supplementary Methods for details. […]
Activity Chamber Open Field: Assessment was made in an Open Field Activity Arena (Med Associates Inc., St. Albans, VT. Model ENV-515) mounted with three planes of infrared detectors within a specially designed sound-attenuating chamber (Med Associates Inc., St.
Albans, VT. MED-017M-027). The arena was 43 cm (L) x 43 cm (W) x 30 cm (H) and the […]
in the periphery and center of the Arena. […]
without bedding, and in a sound isolating chamber. The activity chamber measures distance moved using infrared beams and without video recordings. […]
were used in the study. The animals were housed as described above.
The first dose was administered […]
described above for 30 min.

C57Bl/6 mice [3] = experiment: Morris water maze; type: in vivo, mouse; conditions: chronic 10 mg/kg/day IP, weeks 2 and 3 of testing
From the text: See Supplementary Methods for details.
Elevated Plus Maze: The maze was made of acrylonitrile butadiene styrene (ABS) plastic and had two open arms and two close arms that were 30 cm long and 5 cm wide. The center area where the open and close arms meet was 5 cm x 5 cm. The open arms had 2 mm lips at the edges, and the closed arms had 15 cm opaque walls. The maze was elevated 50 cm and surrounded by privacy blinds during the test. The maze was illuminated to 7 lux using red light throughout the test. Each mouse was released in the center of the maze and given 5 min to explore the maze. Duration and frequency in each zone of the maze were recorded using Ethovision (Noldus Information Technology, Wageningen, the Netherlands) tracking software.
Y Maze Spontaneous Alternation: The Y maze is made of plastic with 3 arms in a "Y" shape.
The arms are labelled as Arm A, B, and C; Arm A is 20.32 cm (L) x 5 cm (W) 12.7 cm (H), Arm B and C are 15.24 cm (L) x 5 cm (W), and 12.7 cm (H). The test is based on the willingness of rodents to explore a novel environment and designed to measure spontaneous alternations in rodents. Each mouse was placed in the center of the maze facing Arm B. The first entry was excluded from data analysis because the animals were led to the initial arm entry by the experimenter. Using an overhead camera, the number of arm entries and alternations were recorded for 5 minutes. An arm entry is when all four paws enter into a new arm of the maze.
The apparatus was cleaned with 1% Virkon. Parameters recorded were % alternation and the total number of entries into arms. The Y maze test was conducted after two weeks of exposure […]
A ping pong ball was erected from the submerged platform and the mice were given two trials of Visible Platform Training to ensure they lacked gross sensorimotor deficit and visual impairment. The escape latency, distance moved, duration in zones, and velocity of the animals were recorded using Ethovision XT (Noldus Information Technology, Wageningen, Netherlands). […]

C[C@@](N)(CCC(=O)O)C(=O)O [(R)-2MeGlu, (R)-2-methylglutamic acid]
Maximum brain concentration [1]: 30 pmol/mg protein
Time of peak brain concentration [1]: ≤ 5 min
half-life ([1]; C57BL/6, brain, estimated): ~1.17 h
Distance moved in the activity chamber vs vehicle (C57Bl/6 mice [2]; acute 30 mg/kg IP): modest but significant reduction in distance moved only at 11 min post injection
Distance moved in the activity chamber vs vehicle (C57Bl/6 mice [2]; acute 100 mg/kg IP): significantly reduced
Distance moved in the activity chamber (C57Bl/6 mice [2]): no significant effect of treatment
Learning in the Morris water maze (C57Bl/6 mice [3]): no significant effect of treatment

CC(N)(CCC(N)=O)C(=O)O (racemic) [rac-2MeGln, rac-2-methylglutamine]
Time of peak brain concentration [1]: 25 min
Distance moved in the activity chamber vs vehicle (C57Bl/6 mice [2]; acute 30 mg/kg IP): modest but significant reduction in distance moved only at 11 min post injection
Distance moved in the activity chamber vs vehicle (C57Bl/6 mice [2]; acute 100 mg/kg IP): not significantly different from vehicle at any time point
Distance moved in the activity chamber (C57Bl/6 mice [2]): no significant effect of treatment
Learning in the Morris water maze (C57Bl/6 mice [3]): no significant effect of treatment

C[C@](N)(CCC(=O)O)C(=O)O [(S)-2MeGlu, (S)-2-methylglutamic acid]
Brain accumulation (with metabolite (S)-2MeGln) relative to (R)-2MeGlu [1]: as much as tenfold more
Maximum brain concentration [1]: 50 pmol/mg protein
Time of peak brain concentration [1]: 25 min
Distance moved in the activity chamber vs vehicle (C57Bl/6 mice [2]; acute 30 mg/kg IP): not significantly different
Distance moved in the activity chamber vs vehicle (C57Bl/6 mice [2]; acute 100 mg/kg IP): significantly reduced
Distance moved in the activity chamber (C57Bl/6 mice [2]): no significant effect of treatment
Learning in the Morris water maze (C57Bl/6 mice [3]): no significant effect of treatment
